In patent US10357493B2, “Metalloenzyme inhibitor compounds” (Selenity Therapeutics (Bermuda), Ltd., priority 2017, dated 2019):

Key:
[1] = target: HDAC1 (Homo sapiens (Human), UniProt Q13547); test: HDAC1 enzymatic assay; format: biochemical; settings: read-out: Human HDAC1 IC50
Procedure, shortened: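 HDAC1 activity was measured in duplicate 50 μl reactions containing 0.5 ng HDAC1, 10 uM of HDAC substrate, and test compound in buffer (50 mM Tris-HCl, pH 7.4, 137 mM NaCl, 2.7 mM KCl, 0.05% Tween 20, 5 μg BSA) with 1% DMSO, incubated 17 hours at room temperature. HDAC Developer was then added for 20 minutes and fluorescence read at 360/460 nm.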

[2] = target: HDAC6 (Homo sapiens (Human), UniProt Q9UBN7); test: HDAC6 enzymatic assay; format: biochemical; settings: read-out: Human HDAC6 IC50
HDAC6, sequence (Q9UBN7 whole entry): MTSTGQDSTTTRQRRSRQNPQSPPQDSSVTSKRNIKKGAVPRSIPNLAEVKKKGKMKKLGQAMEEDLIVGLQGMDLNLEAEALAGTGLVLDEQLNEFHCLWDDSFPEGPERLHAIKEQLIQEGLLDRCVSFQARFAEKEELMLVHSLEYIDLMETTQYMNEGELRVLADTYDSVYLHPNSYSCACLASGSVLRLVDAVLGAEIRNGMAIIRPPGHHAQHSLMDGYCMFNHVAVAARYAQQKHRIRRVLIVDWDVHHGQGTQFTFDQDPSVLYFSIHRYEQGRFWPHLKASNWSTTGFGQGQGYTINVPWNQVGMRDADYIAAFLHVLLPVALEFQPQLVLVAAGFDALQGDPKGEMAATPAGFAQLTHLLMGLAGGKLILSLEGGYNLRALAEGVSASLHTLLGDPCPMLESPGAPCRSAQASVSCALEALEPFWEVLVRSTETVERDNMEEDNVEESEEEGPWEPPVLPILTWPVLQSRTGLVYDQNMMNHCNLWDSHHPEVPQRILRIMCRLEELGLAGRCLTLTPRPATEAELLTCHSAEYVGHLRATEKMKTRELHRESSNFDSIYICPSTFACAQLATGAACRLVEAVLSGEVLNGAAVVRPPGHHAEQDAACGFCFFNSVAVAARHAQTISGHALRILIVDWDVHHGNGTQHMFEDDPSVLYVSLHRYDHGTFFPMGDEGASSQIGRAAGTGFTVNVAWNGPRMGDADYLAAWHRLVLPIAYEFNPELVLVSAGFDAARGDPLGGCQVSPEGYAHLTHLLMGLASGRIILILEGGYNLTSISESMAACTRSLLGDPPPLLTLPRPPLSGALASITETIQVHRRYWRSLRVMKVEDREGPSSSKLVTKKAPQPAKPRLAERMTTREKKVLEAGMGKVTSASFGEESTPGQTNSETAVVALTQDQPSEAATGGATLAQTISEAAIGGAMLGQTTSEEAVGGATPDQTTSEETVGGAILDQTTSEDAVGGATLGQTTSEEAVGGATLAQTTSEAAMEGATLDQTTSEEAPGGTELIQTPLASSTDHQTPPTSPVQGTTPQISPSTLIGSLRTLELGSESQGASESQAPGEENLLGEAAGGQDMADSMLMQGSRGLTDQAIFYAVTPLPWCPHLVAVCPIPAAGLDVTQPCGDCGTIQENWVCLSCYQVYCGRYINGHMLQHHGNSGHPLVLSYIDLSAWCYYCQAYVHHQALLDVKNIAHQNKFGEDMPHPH
Procedure, shortened: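 Human HDAC6 activity was measured in duplicate 50 μl reactions holding 2 ng HDAC6, 10 uM of HDAC substrate and test compound in HDAC assay buffer (50 mM Tris-HCl, pH 7.4, 137 mM NaCl, 2.7 mM KCl, 0.05% Tween 20, 5 μg BSA) with 1% DMSO, for 17 hours at room temperature. HDAC Developer was added for 20 minutes before reading fluorescence at 360/460 nm.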

HDAC1, sequence (Q13547 whole entry): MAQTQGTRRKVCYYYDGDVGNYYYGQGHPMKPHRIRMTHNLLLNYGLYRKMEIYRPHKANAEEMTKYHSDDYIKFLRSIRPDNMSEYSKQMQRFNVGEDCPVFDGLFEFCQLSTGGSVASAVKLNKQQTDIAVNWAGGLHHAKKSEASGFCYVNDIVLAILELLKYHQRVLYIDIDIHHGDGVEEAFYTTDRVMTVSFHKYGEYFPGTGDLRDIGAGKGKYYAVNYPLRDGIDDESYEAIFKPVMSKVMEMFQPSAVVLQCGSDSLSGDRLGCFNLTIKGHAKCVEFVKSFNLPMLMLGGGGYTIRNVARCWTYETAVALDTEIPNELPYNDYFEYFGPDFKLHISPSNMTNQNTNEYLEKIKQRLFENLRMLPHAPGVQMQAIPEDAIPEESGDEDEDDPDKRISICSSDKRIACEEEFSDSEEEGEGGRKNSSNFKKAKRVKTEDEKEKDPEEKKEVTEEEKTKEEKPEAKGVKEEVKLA

IC50 [1] [nM]	IC50 [2] [nM]	Compound
> 30000	76	O=C1CCCN1CC(Nc1ncc(-c2nnc(C(F)F)o2)cn1)c1ccc(F)cc1 (single isomer, unassigned) [177(−), 1-(2-((5-(5-(difluoromethyl)-1,3,4-oxadiazol-2-yl)pyrimidin-2-yl)amino)-2-(4-fluorophenyl)ethyl)pyrrolidin-2-one]
> 30000	260	CS(=O)(=O)NCC(Nc1ncc(-c2nnc(C(F)F)o2)cn1)c1ccc(OC(F)F)cc1F (single isomer, unassigned) [116(−), N-(2-(4-(difluoromethoxy)-2-fluorophenyl)-2-((5-(5-(difluoromethyl)-1,3,4-oxadiazol-2-yl)pyrimidin-2-yl)amino)ethyl)methanesulfonamide]
> 30000	64	Fc1ccc(C(Nc2ncc(-c3nnc(C(F)F)o3)cn2)C2CC2)cc1 (stereo not shown) [Example 36, N-(cyclopropyl(4-fluorophenyl)methyl)-5-(5-(difluoromethyl)-1,3,4-oxadiazol-2-yl)pyrimidin-2-amine]
> 30000	17	Fc1c(Cl)cccc1C1(Nc2ncc(-c3nnc(C(F)F)o3)cn2)CC1 [Example 73, N-(1-(3-chloro-2-fluorophenyl)cyclopropyl)-5-(5-(difluoromethyl)-1,3,4-oxadiazol-2-yl)pyrimidin-2-amine]
> 30000	610	CC(C)C1(Nc2ncc(-c3nnc(C(F)F)o3)cn2)CC1 [Example 28, 5-(5-(difluoromethyl)-1,3,4-oxadiazol-2-yl)-N-(1-isopropylcyclopropyl)pyrimidin-2-amine]
> 30000	41	CN(CC(Nc1ncc(-c2nnc(C(F)F)o2)cn1)c1ccc(F)cc1F)S(C)(=O)=O (single isomer, unassigned) [137(+), N-(2-((5-(5-(difluoromethyl)-1,3,4-oxadiazol-2-yl)pyrimidin-2-yl)amino)-2-(2,4-difluorophenyl)ethyl)-N-methylmethanesulfonamide]
> 30000	35	FC(F)c1nnc(-c2cnc(NC3(c4ccnc(Br)c4)CC3)nc2)o1 [Example 82, N-(1-(2-bromopyridin-4-yl)cyclopropyl)-5-(5-(difluoromethyl)-1,3,4-oxadiazol-2-yl)pyrimidin-2-amine]
> 30000	20	CN(CC(Nc1ncc(-c2nnc(C(F)F)o2)cn1)c1ccc(OC(F)(F)F)cc1)S(C)(=O)=O (stereo not drawn) [153(+), N-(2-((5-(5-(difluoromethyl)-1,3,4-oxadiazol-2-yl)pyrimidin-2-yl)amino)-2-(4-(trifluoromethoxy)phenyl)ethyl)-N-methylmethanesulfonamide]
> 30000	260	CS(=O)(=O)N(CC(Nc1ncc(-c2nnc(C(F)F)o2)cn1)c1ccc(OC(F)(F)F)cc1)CC(F)(F)F (stereo not drawn) [154(+), N-(2-((5-(5-(difluoromethyl)-1,3,4-oxadiazol-2-yl)pyrimidin-2-yl)amino)-2-(4-(trifluoromethoxy)phenyl)ethyl)-N-(2,2,2-trifluoroethyl)methanesulfonamide]
> 30000	33	CCS(=O)(=O)NCC(Nc1ncc(-c2nnc(C(F)F)o2)cn1)c1ccc(F)cc1F (single isomer, unassigned) [139(+), N-(2-((5-(5-(difluoromethyl)-1,3,4-oxadiazol-2-yl)pyrimidin-2-yl)amino)-2-(2,4-difluorophenyl)ethyl)ethanesulfonamide]
> 30000	45	CC(NS(C)(=O)=O)C(Nc1ncc(-c2nnc(C(F)F)o2)cn1)c1ccc(F)cc1 (single isomer, unassigned) [Example 127A, N-(1-((5-(5-(difluoromethyl)-1,3,4-oxadiazol-2-yl)pyrimidin-2-yl)amino)-1-(4-fluorophenyl)propan-2-yl)methanesulfonamide]
> 30000	71	CCC(Nc1ncc(-c2nnc(C(F)F)o2)cn1)c1ccc(F)cc1 (stereo not shown) [Example 22, 5-(5-(difluoromethyl)-1,3,4-oxadiazol-2-yl)-N-(1-(4-fluorophenyl)propyl)pyrimidin-2-amine]
> 30000	220	COc1ccccc1C1(Nc2ncc(-c3nnc(C(F)(F)F)o3)cn2)CC1 [Example 40, N-(1-(2-methoxyphenyl)cyclopropyl)-5-(5-(trifluoromethyl)-1,3,4-oxadiazol-2-yl)pyrimidin-2-amine]
> 30000	23	Fc1ccc(Cl)c(C2(Nc3ncc(-c4nnc(C(F)F)o4)cn3)CC2)c1 [Example 80, N-(1-(2-chloro-5-fluorophenyl)cyclopropyl)-5-(5-(difluoromethyl)-1,3,4-oxadiazol-2-yl)pyrimidin-2-amine]
> 30000	21	Fc1ccc(C2(Nc3ncc(-c4nnc(C(F)F)o4)cn3)CC2)cc1F [Example 59, 5-(5-(difluoromethyl)-1,3,4-oxadiazol-2-yl)-N-(1-(3,4-difluorophenyl)cyclopropyl) pyrimidin-2-amine]
> 30000	23	COc1ccccc1C1(Nc2ncc(-c3nnc(C(F)F)o3)cn2)CC1 [Example 46, 5-(5-(difluoromethyl)-1,3,4-oxadiazol-2-yl)-N-(1-(2-methoxyphenyl)cyclopropyl)pyrimidin-2-amine]
> 30000	26	CS(=O)(=O)NCCC(Nc1ncc(-c2nnc(C(F)F)o2)cn1)c1ccc(F)cc1 (stereo not shown) [Example 125, N-(3-((5-(5-(difluoromethyl)-1,3,4-oxadiazol-2-yl)pyrimidin-2-yl)amino)-3-(4-fluorophenyl)propyl)methanesulfonamide]
> 30000	150	O=S1(=O)CCCN1CC(Nc1ncc(-c2nnc(C(F)F)o2)cn1)c1ccc(F)cc1 (single isomer, unassigned; (-)) [120(−), (−)-2-(2-((5-(5-(difluoromethyl)-1,3,4-oxadiazol-2-yl)pyrimidin-2-yl)amino)-2-(4-fluorophenyl)ethyl)isothiazolidine 1,1-dioxide]
> 30000	1100	CS(=O)(=O)NCC(Nc1ncc(-c2nnc(C(F)F)o2)cn1)C1CC1 (single isomer, unassigned) [123(−), N-(2-cyclopropyl-2-((5-(5-(difluoromethyl)-1,3,4-oxadiazol-2-yl)pyrimidin-2-yl)amino)ethyl)methanesulfonamide]
> 30000	110	CS(=O)(=O)N(CC(Nc1ncc(-c2nnc(C(F)F)o2)cn1)c1ccc(Cl)cc1)CC(F)(F)F (single isomer, unassigned) [174(−), N-(2-(4-chlorophenyl)-2-((5-(5-(difluoromethyl)-1,3,4-oxadiazol-2-yl)pyrimidin-2-yl)amino)ethyl)-N-(2,2,2-trifluoroethyl)methanesulfonamide]
> 30000	16	COc1cc(F)c(C2(Nc3ncc(-c4nnc(C(F)F)o4)cn3)CC2)c(F)c1 [Example 106, N-(1-(2,6-difluoro-4-methoxyphenyl)cyclopropyl)-5-(5-(difluoromethyl)-1,3,4-oxadiazol-2-yl)pyrimidin-2-amine]
> 30000	710	Fc1ccc(C(CC(F)(F)F)Nc2ncc(-c3nnc(C(F)F)o3)cn2)c(F)c1 (single isomer, unassigned) [101(−)]
> 30000	590	CS(=O)(=O)NCC(Nc1ncc(-c2nnc(C(F)F)o2)cn1)c1ccc(F)c(F)c1 (single isomer, unassigned) [171(−), N-(2-((5-(5-(difluoromethyl)-1,3,4-oxadiazol-2-yl)pyrimidin-2-yl)amino)-2-(3,4-difluorophenyl)ethyl)methanesulfonamide]
> 30000	58	Fc1ccc(-c2cccc(C3(Nc4ncc(-c5nnc(C(F)F)o5)cn4)CC3)c2)cc1 [Example 18, 5-(5-(difluoromethyl)-1,3,4-oxadiazol-2-yl)-N-(1-(4′-fluoro-[1,1′-biphenyl]-3-yl)cyclopropyl)pyrimidin-2-amine]
> 30000	32	CC(C)CS(=O)(=O)NCC(Nc1ncc(-c2nnc(C(F)F)o2)cn1)c1ccc(F)cc1 (stereo not shown) [Example 112, N-(2-((5-(5-(difluoromethyl)-1,3,4-oxadiazol-2-yl)pyrimidin-2-yl)amino)-2-(4-fluorophenyl)ethyl)-2-methylpropane-1-sulfonamide]
> 30000	230	CCS(=O)(=O)N(CC(Nc1ncc(-c2nnc(C(F)F)o2)cn1)c1ccc(F)cc1)CC(F)(F)F (single isomer, unassigned) [164(−), N-(2-((5-(5-(difluoromethyl)-1,3,4-oxadiazol-2-yl)pyrimidin-2-yl)amino)-2-(4-fluorophenyl)ethyl)-N-(2,2,2-trifluoroethyl)ethanesulfonamide]
> 30000	40	FC(F)c1nnc(-c2cnc(NC3(c4ccccc4C(F)(F)F)CC3)nc2)o1 [Example 58, 5-(5-(difluoromethyl)-1,3,4-oxadiazol-2-yl)-N-(1-(2-(trifluoromethyl)phenyl)cyclopropyl) pyrimidin-2-amine]
> 30000	27	FC(F)c1nnc(-c2cnc(NC3(c4ccc(Br)cc4)CC3)nc2)o1 [Example 47, N-(1-(4-bromophenyl)cyclopropyl)-5-(5-(difluoromethyl)-1,3,4-oxadiazol-2-yl)pyrimidin-2-amine]
> 30000	190	Fc1ccc(C2(Nc3ncc(-c4nnc(C(F)F)o4)cn3)CC2)nc1 [Example 67, 5-(5-(difluoromethyl)-1,3,4-oxadiazol-2-yl)-N-(1-(5-fluoropyridin-2-yl)cyclopropyl) pyrimidin-2-amine]
